ChEMBL document CHEMBL1201862, “PubChem BioAssay data set” (2004)
Active and inactive are the calls of the source.

Columns and labels:
[1] = HepG2 cell cytotoxicity, dose response, cytotoxicity control for non-replicating M. tuberculosis project (AID 489018); type: functional; conditions: Mycobacterium tuberculosis
[2] = cells; type: functional
[3] = THP-1 cell cytotoxicity, dose response, cytotoxicity control for non-replicating M. tuberculosis project (AID 489025); type: functional
[4] = molecular target: T1, Acyl-homoserine lactone acylase PvdQ (Pseudomonas aeruginosa (strain LESB58), UniProt Q9I194); assay: P. aeruginosa PvdQ acylase inhibitors, dose response, biochemical, fluorescence, plate reader and imaging, cherry-picks (AID 493231)
T1 sequence (Q9I194 whole entry): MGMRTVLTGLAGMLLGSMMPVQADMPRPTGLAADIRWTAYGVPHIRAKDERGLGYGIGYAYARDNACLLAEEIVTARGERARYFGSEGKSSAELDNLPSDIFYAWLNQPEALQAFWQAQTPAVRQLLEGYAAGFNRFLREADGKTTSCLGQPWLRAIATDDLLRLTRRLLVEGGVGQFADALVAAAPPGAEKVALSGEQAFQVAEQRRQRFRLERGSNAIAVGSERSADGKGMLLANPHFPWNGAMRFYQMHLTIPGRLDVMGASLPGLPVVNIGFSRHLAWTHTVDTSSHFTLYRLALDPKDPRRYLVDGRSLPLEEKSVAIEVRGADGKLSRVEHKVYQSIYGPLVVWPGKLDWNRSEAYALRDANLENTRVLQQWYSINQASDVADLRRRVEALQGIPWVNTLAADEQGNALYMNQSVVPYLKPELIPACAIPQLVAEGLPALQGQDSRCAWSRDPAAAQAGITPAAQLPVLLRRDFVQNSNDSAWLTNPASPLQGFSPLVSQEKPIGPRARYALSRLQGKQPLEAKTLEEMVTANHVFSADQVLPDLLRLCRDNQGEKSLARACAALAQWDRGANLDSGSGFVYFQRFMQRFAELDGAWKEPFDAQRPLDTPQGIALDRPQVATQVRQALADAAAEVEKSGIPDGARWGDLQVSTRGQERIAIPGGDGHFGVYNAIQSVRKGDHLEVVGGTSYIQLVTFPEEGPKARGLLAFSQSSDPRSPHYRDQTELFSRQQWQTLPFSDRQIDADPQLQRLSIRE

[5] = molecular target: Kallikrein-7 (Homo sapiens, UniProt P49862); assay: Fluorescence Intensity-based biochemical primary high throughput dose response assay to identify activators of kallikrein-7 (K7) zymogen.
[6] = molecular target: Eukaryotic translation initiation factor 4E (Mus musculus, UniProt P63073); assay: eIF4E–eIF4G protein interaction inhibitors, dose response, biochemical, TR-FRET (AID 855); type: functional;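 further: potency for disrupting eIF4E binding to eIF4GI seen as loss of FRET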
[7] = molecular target: G-protein coupled receptor 55 (Homo sapiens, UniProt Q9Y2T6); assay: GPR55 agonists via beta-arrestin recruitment, primary screen, imaging, U2OS cells, beta-arrestin-GFP redistribution (AID 1961); type: functional
[8] = molecular target: Cytochrome P450 3A4 (Homo sapiens, UniProt P08684);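 further: CYP3A4 tested as one member of a cytochrome P450 panel screen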
[9] = molecular target: Paired box protein Pax-8 (Homo sapiens, UniProt Q06710); assay: inhibitors of PAX8-driven TPO luciferase reporter, dose response, RMG-I cells, cherry-pick (AID 687027); type: functional, cell-based;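 further: luciferase reporter driven by Pax8 target thyroperoxidase promoter measured by SteadyGlo luminescence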
[10] = NIH:OVCAR-3 ovarian cancer cell cytotoxicity, dose response, PAX8 inhibitor project, plate reader, dry powder samples (AID 743044); type: functional, cell-based
[11] = cytotoxicity in OVCAR8 ovarian cancer cells, dose response, PAX8 project, cell-based, plate reader, dry powder samples (AID 743197); type: functional; conditions: OVCAR-8
[12] = cells
[13] = molecular target: Major prion protein (Homo sapiens, UniProt P04156); type: functional, cell-based
[14] = THP-1 cell cytotoxicity, dose response, cytotoxicity control for Vif-APOBEC3G degradation inhibitor project, THP-1 cells (AID 1117359); type: functional; conditions: Human immunodeficiency virus 1, THP-1
[15] = tested on: HEK293; assay: inhibitors of LMP1-driven NF-kB reporter, dose response, cell-based, HEK293, luciferase, cherry-pick (AID 588343); type: functional; conditions: Homo sapiens
[16] = molecular target: Luciferin 4-monooxygenase (Photinus pyralis, UniProt P08659); assay: Counter Screen for Luciferase-based Assay Positives. [Related pubchem assays: 620, 618, 411 ]
[17] = tested on: HT-1080; assay: cytotoxicity in HT1080 fibrosarcoma cells, cell-based, fluorescence readout (AID 620); type: functional; conditions: Homo sapiens
[18] = P. falciparum Dd2 growth inhibitors, dose response, SYBR Green, cherry-picked samples (AID 1159567); type: functional, cell-based
[19] = P. falciparum ATP4 D1247Y mutant growth inhibitors, dose response, NITD609-resistant line, SYBR Green, dry powder (AID 1159571); type: functional, cell-based;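 further: parasites synchronized at ring stage by sorbitol before testing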
[20] = P. falciparum 3D7-ScDHODH growth inhibitors, dose response, SYBR Green, dry powder samples (AID 1159570); type: functional, cell-based;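 further: parasite growth measured after 72 hours of compound exposure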
[21] = P. falciparum Dd2 growth inhibitors, dose response, SYBR Green, dry powder samples (AID 1159566); type: functional, cell-based;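 further: potency for growth inhibition with lower SYBR green DNA signal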
[22] = molecular target: Voltage-gated inwardly rectifying potassium channel KCNH2 (Homo sapiens, UniProt Q12809); assay: hERG protection from proarrhythmic block, potency, dose response, cell-based, thallium flux (AID 2121); type: ADME
[23] = tested on: Streptococcus; assay: Group A Streptococcus viability loss, dose response, counter-screen for streptokinase expression inhibitor project, luminescence, BacTiterGlo (AID 1915); type: functional, organism-based;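 further: potency for reduction of bacterial viability or growth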
[24] = microbe, parasite or virus in culture; type: functional; conditions: Mycobacterium tuberculosis
[25] = tested on: Streptococcus sp. 'group A'; assay: growth inhibition of control SK(-) GAS strain, dose response, counter-screen for streptokinase expression inhibitor project, luminescence, kanamycin, BacTiterGlo, confirmation (AID 1900); type: functional, organism-based
[26] = MC4R antagonists, dose response, counter-screen for LGR2 antagonist project, cell-based, plate reader, cherry pick (AID 743444); type: functional;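 further: transfected HEK 293 cells stimulated with alpha-MSH peptide; potency of inhibitors of the alpha-MSH evoked signal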
[27] = LGR2 antagonists, dose response, cell-based, HEK293, CRE-luciferase reporter, cherry pick, set 2 (AID 743343); type: functional;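 further: transfected cells were stimulated with diluted bursicon conditioned medium after compound addition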
[28] = HepG2 cell cytotoxicity, dose response, cytotoxicity control, plate reader, cherry-pick, antagonist series (AID 743416); type: functional, cell-based
[29] = molecular target: FAD-linked sulfhydryl oxidase ALR (Homo sapiens, UniProt P55789); assay: inhibitors of human ALR sulfhydryl oxidase, dose response, biochemical, H2O2 detection, luminescence, cherry-pick (AID 493248)

Structure (SMILES): C=CCn1c(C)cc(C2=NN=C(NCc3ccccc3)SC2)c1C
- CC50 [1]: > 20 µM (active)
- IC50 [2]: 10.8 µM (active)
- CC50 [3]: 13.8 µM (active)

Structure (SMILES): O=C(NC1CCCCCCC1)c1cccc(Cl)c1
- AC50 [4]: 5.02 µM (active)

Structure (SMILES): CCCOC(=O)Oc1ccc2c(=O)c(Oc3cc(C)cc(C)c3)coc2c1
- EC50 [5]: 3.19 µM (active)

Structure (SMILES): CC(=O)Nc1cccc(NC(=S)Nc2ccc(F)c(Cl)c2)c1
- IC50 [6]: 50 µM (inactive)

Structure (SMILES): N#CC1=C(N)OC2=C(CC/C2=C\c2ccccc2)C1c1ccccc1 (stereo not given)
- EC50 [7]: > 32 µM (inactive)
- AC50 [8]: 39.8 µM (inconclusive)

Structure (SMILES): CO/N=C/c1ccc(Sc2ccccc2)c([N+](=O)[O-])c1
- AC50 [4]: 97.2 µM (active)

Structure (SMILES): C[C@@H]1CN([C@H](C)CO)C(=O)c2cc(NC(=O)c3ccccc3)ccc2O[C@@H](C)CCCCO[C@@H]1CN(C)Cc1ccc(C(F)(F)F)cc1
- AC50 [9]: 8.24 µM (active)
- AC50 [10]: 50.2 µM (active)
- AC50 [11]: > 70 µM (inactive)

Structure (SMILES): COC(=O)[C@H](CC1(c2cn(S(=O)(=O)CC[Si](C)(C)C)c3ccccc23)C(=O)Nc2ccccc21)NC(=O)OC(C)(C)C (stereo not given in full)
- IC50 [12]: > 138 µM (inactive)
- IC50 [13]: 11.7 µM (inactive)

Structure (SMILES): COc1ccc2c(c1)CCC1(C)CC(=O)C(Br)=C21 (stereo not given)
- IC50 [12]: > 138 µM (inactive)
- IC50 [13]: 3.21 µM (active)

Structure (SMILES): CC(C)CCNC(=O)Cn1c2c(c(-c3ccccc3Cl)cc1=O)CCC2
- CC50 [14]: > 40 µM (active)

Structure (SMILES): Cc1cc(C(=O)CSc2nnc(-c3cccs3)o2)c(C)n1-c1ccccc1
- AC50 [15]: 5.59 µM (active)
- EC50 [16]: > 100 µM (not active)
- EC50 [17]: 22.6 µM (active)

Structure (SMILES): COc1ccc2c3c(n(C)c2c1)[C@@H](CO)N(C(=O)C1CCCC1)CC31CN(C(=O)Nc2cccc(F)c2)C1
- AC50 [18]: 1.32 µM (active)
- AC50 [19]: 1.24 µM (active)
- AC50 [20]: 0.818 µM (active)
- AC50 [21]: 1.88 µM (active)

Structure (SMILES): O=C(NC(=S)Nc1ccccc1)c1cc(-c2ccccc2)nc2ccccc12
- EC50 [22]: 0.38 µM (active)

Structure (SMILES): Cc1ccc(-c2nc(-c3ccccc3)no2)cc1
- EC50 [16]: 1.67 µM (active)
- EC50 [17]: > 50 µM (not active)

Structure (SMILES): COc1ccc2cc(C(=O)C3CCCN(C(=O)c4cccnc4)C3)ccc2c1 (stereo not given)
- EC50 [5]: 23.7 µM (inactive)

Structure (SMILES): COc1cc(NC(=O)c2ccco2)c(OC)cc1NC(=O)CCC(=O)Nc1cc(C)ccc1C
- EC50 [5]: 26.8 µM (inactive)

Structure (SMILES): Cc1cccc(/C=C2/SC(N/N=C3\CC4CCC3(C)C4(C)C)=NC2=O)c1 (stereo not given)
- EC50 [23]: 1.3 µM (active)
- CC50 [24]: > 40 µM (active)
- EC50 [25]: 1.83 µM (active)
- EC50 [22]: 0.12 µM (active)

Structure (SMILES): O=C(NC(=S)Nc1nc(-c2ccc(Br)cc2)cs1)c1ccco1
- EC50 [22]: 7.39 µM (active)

Structure (SMILES): COc1ccc(OCC(=O)Nc2nccs2)cc1
- AC50 [26]: 5.99 µM (active)
- AC50 [15]: 4.63 µM (active)
- AC50 [27]: 5.35 µM (active)

Structure (SMILES): Cc1nc(SC2CCOC2=O)c2c(C)c(C)sc2n1 (stereo not given)
- IC50 [12]: > 138 µM (inactive)
- IC50 [13]: 1.93 µM (active)

Structure (SMILES): OCCCNc1[nH]cnc2c3ccccc3nc1-2
- CC50 [14]: > 40 µM (active)

Structure (SMILES): Cc1ccc(S(=O)(=O)N2[C@@H](CO)CO[C@H]2CC(=O)OCc2ccccc2)cc1
- AC50 [28]: > 52 µM (inactive)

Structure (SMILES): Cc1nc2cc(-c3nc4cc(N)ccc4o3)ccc2[nH]1
- AC50 [29]: 1.72 µM (active)
- EC50 [16]: > 100 µM (not active)
- EC50 [17]: > 50 µM (not active)

Structure (SMILES): O=C(NC1CCSC1)c1cccc(Cl)c1 (stereo not given)
- AC50 [4]: 4.11 µM (active)
